Tests used:
[1] = Measurement of metabolic stability in human liver microsomes; type: in vitro ADME; details: residual ratio of test compound after 30 minutes at 37° C. with human liver microsome, LC/MS/MS
Experimental: 1 mmol/L DMSO solutions of the compounds produced in the Examples were prepared. Each of the 1 mmol/L DMSO solutions was diluted with acetonitrile to 10 μmol/L, and then diluted with a 6.5 mmol/L Q-NADPH solution to 200 nmol/L. 50 μL of each solution was added to the reaction group and the non-reaction group. 50 μL of a 0.2 mg protein/mL human liver microsome (Mixed Gender, Pool of 50 livers; XenoTech, LLC) solution was added to the reaction group, followed by incubation at 37° C. for 30 minutes with shaking. After 400 μL of methanol was added to the non-reaction group, 50 μL of a 0.2 mg protein/mL human liver microsome solution was added to adjust the formulation. After incubation in the reaction group, 400 μL of methanol was added to stop the reaction. The samples of the reaction group and non-reaction group were allowed to stand at −20° C. for about 30 minutes, followed by centrifugation at 4° C. at 3000 rpm for about 10 minutes. The supernatant was analyzed using LC/MS/MS, and the residual ratio of the test compound was calculated from the peak area value of the test compound using the following formula. The measurement was carried out using the following devices: HPLC system: LC-20A-Series High Performance Liquid Chromatograph (Shimadzu Corporation) and mass spectrometer: API 4000 (AB Sciex Pte. Ltd.), or using equivalent devices. Residual ratio (%)=(peak area value of test compound in reaction group/peak area value of test compound in non-reaction group)×100 Results

[2] = tested on: NRF2; assay: Measurement 2 of Nrf2 activating action (reporter assay) in HCE-T/ARE-Luc cells; type: cell-based; details: 50% activation concentration, culture for 24 hours
Experimental: The NRF2 activating action of the compounds on cells was measured by a reporter gene assay. pGL4.37[luc2P/ARE/Hygro](Promega) was introduced into HCE-T cells using FuGENE HD. Cells that acquired drug resistance as a result of transduction were screened by culture in the presence of 50 μg/mL hygromycin, and a clone strain, HCE-T/ARE-Luc, was established.
HCE-T/ARE-Luc was cultured using DMEM/F12, 10 ng/mL hEGF, 5 μg/mL insulin, and 5% FBS. Phenol red-free DMEM/F12 was used as the assay medium.
HCE-T/ARE-Luc was seeded in a 96-well polystyrene microplate (FALCON) with 10000 cells per well. The cells were incubated in a CO: incubator at 37° C. for 16 hours to allow for cell adhesion. The test substance was dissolved in dimethylsulfoxide to prepare a solution at a concentration 1000 times higher than the test concentration. The test substance diluted 1000-fold in the assay medium was added, followed by culture for 24 hours. When measuring the activity of the reporter, the medium containing the test substance was removed, and then a new medium and a substrate of ONE-GloEX Luciferase Assay System (Promega) were added. The plate was shaken for 1 minute and then allowed to stand at ordinary temperature for 10 minutes, and luminescence was detected using the GloMax Discover System.
The 50% activation concentration of each test substance was calculated by creating a calibration curve between two concentrations across the luminescence intensity of 50%.

[3] = target: T1, binding between NRF2 and KEAP1 (Homo sapiens, UniProt Q14145); assay: Measurement 1 of Nrf2 activating action (binding assay): BRET assay of inhibition of the binding between NRF2 and KEAP1; details: 50% binding inhibitory concentration, NanoLuc-NRF2 / KEAP1-HaloTag cell lysates
T1 construct: expressed in transfected cells; host or cells: HCE-T cells; each protein was expressed separately, and the two cell lysates were mixed in the well
T1 sequence (Q14145 whole entry): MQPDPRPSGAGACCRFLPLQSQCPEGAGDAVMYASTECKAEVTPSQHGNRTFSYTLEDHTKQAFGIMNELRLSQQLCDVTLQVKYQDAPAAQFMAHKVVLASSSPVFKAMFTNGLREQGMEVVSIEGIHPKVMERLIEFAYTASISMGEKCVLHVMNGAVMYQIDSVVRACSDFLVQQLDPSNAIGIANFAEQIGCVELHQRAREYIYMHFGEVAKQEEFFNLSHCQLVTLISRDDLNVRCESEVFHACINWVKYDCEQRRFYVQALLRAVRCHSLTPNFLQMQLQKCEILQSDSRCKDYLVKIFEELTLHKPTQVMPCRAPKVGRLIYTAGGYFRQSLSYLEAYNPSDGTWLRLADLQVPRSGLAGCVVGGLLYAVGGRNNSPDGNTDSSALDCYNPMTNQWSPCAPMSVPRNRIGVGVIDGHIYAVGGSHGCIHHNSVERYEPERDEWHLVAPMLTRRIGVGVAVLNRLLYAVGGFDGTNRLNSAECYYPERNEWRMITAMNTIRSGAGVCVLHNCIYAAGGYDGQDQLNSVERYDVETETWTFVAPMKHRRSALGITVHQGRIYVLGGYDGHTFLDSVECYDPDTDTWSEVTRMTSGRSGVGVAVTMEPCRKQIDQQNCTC
Experimental: Compounds 1 to 53 produced in the Examples were used as test substances.
The inhibitory activity of each compound on the binding between NRF2 and KEAP1 was measured by bioluminescence resonance energy transfer (BRET) assay. A plasmid having human NRF2 (Original Clone ID: ha01449s1) sequence fused with NanoLuc (19 kDa, Promega) at the N-terminal was transduced into HCE-T cells using FuGENE HD (Promega). 48 hours after transduction, the cell lysate was collected and used as an NRF2-expressing cell lysate. A plasmid having human KEAP1 (Original Clone ID: cs00328) sequence fused with HaloTag (33 kDa, Promega) at the C-terminal was transduced into HCE-T cells using FuGENE HD (Promega). After 24 hours, HaloTag Nano BRET 618 Ligand (Promega) was added to the medium. The cell lysate cultured for 24 hours after the addition was used as a KEAP1-expressing cell lysate.
The NRF2-expressing cell lysate and the KEAP1-expressing cell lysate were adjusted so that the luminescence and fluorescence intensities per well were constant. Tables 1 and 2 show the formulation of each reaction solution.
Each test substance at a concentration 100 times higher than the test concentration was dissolved in dimethylsulfoxide for adjustment. 49 μL of KEAP1 solution was added to a 96-well polystyrene microplate (FALCON) to which 1 μL of each test substance solution was added, followed by incubation for 15 minutes. Then, 50 μL of NRF2 solution was added to the above solution, followed by incubation for 1 hour. To measure the binding between NRF2 and KEAP1, NanoBRET Nano-Glo Substrate (Promega) diluted with Opti-Mem (Thermo Fisher Scientific) was added, followed by shaking for 30 seconds. Then, luminescence and fluorescence were measured using the GloMax Discover System (Promega). A 495-nm short pass filter and a 600-nm long pass filter were respectively used to measure donor and acceptor emission values. A value obtained by dividing the acceptor emission value by the donor emission value was regarded as BRET value. A BRET value when the compound was not added, and a BRET value when the KEAP1 solution was not added were respectively used as binding rates of 100% and 0%, and the binding rate when the compound was added was calculated. Further, using this binding rate, the 50% binding inhibitory activity concentration (IC50) was calculated from the following formula: IC50(M)=10^(LOG(A/B)×(50−C)/(D−C)+LOG(B)) • A: higher concentration out of 2 close concentrations across the inhibition rate of 50% • B: lower concentration out of 2 close concentrations across the inhibition rate of 50% • C: inhibition rate at B • D: inhibition rate at A

| Metabolic stability* [1] [%] | EC50 [2] [nM] | IC50 [3] [nM] | Compound |
| --- | --- | --- | --- |
| 50 | 7.47 |  | CC[C@@H]1CN(Cc2cc(C(c3cc(OC)c(C(C)=O)s3)C(C)C(=O)O)ccc2C)S(=O)(=O)c2cnccc2O1 (stereo partly drawn) [Compound 51, 3-(5-acetyl-4-methoxythiophen-2-yl)-3-(3-{[(R)-4-ethyl-1,1-dioxide-3,4-dihydro-2H-pyrido[4,3-b][1,4,5]oxathiazepin-2-yl]methyl}-4-methylphenyl)-2-methylpropanoic acid] |
| 51 | 3.57 |  | CC[C@@H]1CN(Cc2cc(C(c3ccc(C(C)=O)s3)C(C)C(=O)O)ccc2C)S(=O)(=O)c2cnccc2O1 (stereo partly drawn) [Compound 16, 3-(5-acetylthiophen-2-yl)-3-(3-{[(R)-4-ethyl-1,1-dioxide-3,4-dihydro-2H-pyrido[4,3-b][1,4,5]oxathiazepin-2-yl]methyl}-4-methylphenyl)-2-methylpropanoic acid] |
| 48 | 2.98 |  | CC[C@@H]1CN(Cc2cc(C(c3cc(OC)c(C(C)=O)s3)C(C)(C)C(=O)O)ccc2C)S(=O)(=O)c2cnccc2O1 (stereo partly drawn) [Compound 50, 3-(5-acetyl-4-methoxythiophen-2-yl)-3-(3-{[(R)-4-ethyl-1,1-dioxide-3,4-dihydro-2H-pyrido[4,3-b][1,4,5]oxathiazepin-2-yl]methyl}-4-methylphenyl)-2,2-dimethylpropanoic acid] |
| 37 | 9.19 |  | CC[C@@H]1CN(Cc2cc(C(c3ccc(C(C)=O)s3)C(C)C(=O)O)ccc2C)S(=O)(=O)c2ccccc2O1 (stereo partly drawn) [Compound 1, 3-(5-acetylthiophen-2-yl)-3-(3-{[(R)-4-ethyl-1,1-dioxide-3,4-dihydro-2H-benzo[b][1,4,5]oxathiazepin-2-yl]methyl}-4-methylphenyl)-2-methylpropanoic acid] |

Further lines, the compound ahead of its results:

| Compound | Metabolic stability* [1] [%] | EC50 [2] [nM] | IC50 [3] [nM] |
| --- | --- | --- | --- |
| CC[C@@H]1CN(Cc2cc(C(c3cc(OC)c(C(C)=O)s3)C(C)(C)C(=O)O)ccc2C)S(=O)(=O)c2ccccc2O1 (stereo partly drawn) [Compound 4, 3-(5-acetyl-4-methoxythiophen-2-yl)-3-(3-{[(R)-4-ethyl-1,1-dioxide-3,4-dihydro-2H-benzo[b][1,4,5]oxathiazepin-2-yl]methyl}-4-methylphenyl)-2,2-dimethylpropanoic acid] | 48 | 7.17 |  |
| CC[C@@H]1CN(Cc2cc(C(c3ccc(C(C)=O)s3)C(C)(C)C(=O)O)ccc2C)S(=O)(=O)c2cnccc2O1 (stereo partly drawn) [Compound 48, 3-(5-acetylthiophen-2-yl)-3-(3-{[(R)-4-ethyl-1,1-dioxide-3,4-dihydro-2H-pyrido[4,3-b][1,4,5]oxathiazepin-2-yl]methyl}-4-methylphenyl)-2,2-dimethylpropanoic acid] | 56 | 3.67 |  |
| CC[C@@H]1CN(Cc2cc(C(c3cc(C(C)=O)cs3)C(C)C(=O)O)ccc2C)S(=O)(=O)c2ccccc2O1 (stereo partly drawn) [Compound 3, 3-(4-acetylthiophen-2-yl)-3-(3-{[(R)-4-ethyl-1,1-dioxide-3,4-dihydro-2H-benzo[b][1,4,5]oxathiazepin-2-yl]methyl}-4-methylphenyl)-2-methylpropanoic acid] | 51 | 6.81 |  |
| CC[C@@H]1CN(Cc2cc(C(c3cc(F)c(C(C)=O)s3)C(C)(C)C(=O)O)ccc2C)S(=O)(=O)c2cnccc2O1 (stereo partly drawn) [Compound 49, 3-(5-acetyl-4-fluorothiophen-2-yl)-3-(3-{[(R)-4-ethyl-1,1-dioxide-3,4-dihydro-2H-pyrido[4,3-b][1,4,5]oxathiazepin-2-yl]methyl}-4-methylphenyl)-2,2-dimethylpropanoic acid] | 44 | 7.76 |  |
| CC(=O)c1ccc(C(c2ccc(C)c(CN3CC(CCOCc4ccccc4)Oc4ccccc4S3(=O)=O)c2)C(C)C(=O)O)s1 (stereo not shown) [Compound 13, 3-(5-acetylthiophen-2-yl)-3-[3-({4-[2-(benzyloxy)ethyl]-1,1-dioxide-3,4-dihydro-2H-benzo[b][1,4,5]oxathiazepin-2-yl}methyl)-4-methylphenyl]-2-methylpropanoic acid] | 2 | 6.71 |  |
| CC[C@@H]1CN(Cc2cc(C(c3cc(C)c(C(C)=O)s3)C(C)C(=O)O)ccc2C)S(=O)(=O)c2ccccc2O1 (stereo partly drawn) [Compound 2, 3-(5-acetyl-4-methylthiophen-2-yl)-3-(3-{[(R)-4-ethyl-1,1-dioxide-3,4-dihydro-2H-benzo[b][1,4,5]oxathiazepin-2-yl]methyl}-4-methylphenyl)-2-methylpropanoic acid] | 21 | 9 |  |
| CC[C@@H]1CN(Cc2cc(C(CC(=O)O)c3cc(C)c(C(=O)NC)o3)ccc2C)S(=O)(=O)c2ccccc2O1 (stereo partly drawn) [Compound 31, 3-(3-{[(R)-4-ethyl-1,1-dioxide-3,4-dihydro-2H-benzo[b][1,4,5]oxathiazepin-2-yl]methyl}-4-methylphenyl)-3-[4-methyl-5-(methylcarbamoyl)furan-2-yl]propanoic acid] | 77 |  | 99 |

— patent publication US12552757B2, “NRF2-activating compound” (SENJU PHARMACEUTICAL CO., LTD., priority 2019, dated 2026)
